This data set relates to Liver. In words: Intrinsic clearance in human liver microsomes at 2.5 uM assessed per gram of liver. Type of data set: ADME, microsome.

The compound `O=S(=O)(c1ccc(F)c(F)c1)c1cnc2c(F)cccc2c1-c1cccc(F)c1` returned a CLint of 1.28 mL/min/g.

Compound `COc1ccc(-c2c(S(=O)(=O)c3cc(Cl)cc(Cl)c3)cnc3c(F)cccc23)cc1` had a CLint of 2.11 mL/min/g.

Regarding `N#Cc1cccc(S(=O)(=O)c2cnc3c(F)cccc3c2-c2ccc(Cl)cc2)c1`, the CLint worked out at 0.08 mL/min/g.

On to `O=S(=O)(c1cc(Cl)cc(Cl)c1)c1cnc2c(F)cccc2c1-c1ccc(Cl)cc1`, for which the CLint is 0.78 mL/min/g.

The compound `N#Cc1cccc(S(=O)(=O)c2cnc3c(F)cccc3c2-c2ccc(F)cc2)c1` returned a CLint of 0.19 mL/min/g.

`N#Cc1cccc(S(=O)(=O)c2cnc3cc(F)ccc3c2-c2cccc(Cl)c2)c1` showed a CLint of 0.99 mL/min/g.

`COc1cccc(-c2c(S(=O)(=O)c3cccc(C#N)c3)cnc3cc(F)ccc23)c1` showed a CLint of 1.83 mL/min/g.

As for `COc1ccc(-c2c(S(=O)(=O)c3cccc(F)c3)cnc3cc(F)ccc23)cc1`, the CLint came out at 1.89 mL/min/g.

The compound `Cc1ccc(S(=O)(=O)c2cnc3c(F)cccc3c2-c2cccc(F)c2)cc1F` gave a CLint of 3.92 mL/min/g.

In turn, `O=S(=O)(c1ccc(F)cc1)c1cnc2cc(F)ccc2c1-c1cccc(F)c1` gave a CLint of 0.95 mL/min/g.

On to `COc1ccc(-c2c(S(=O)(=O)c3cccc(F)c3)cnc3c(F)cccc23)cc1`, for which the CLint came to 2.48 mL/min/g.

`COc1cccc(-c2c(S(=O)(=O)c3cc(Cl)cc(Cl)c3)cnc3cc(F)ccc23)c1` displayed a CLint of 1.51 mL/min/g.

`O=S(=O)(c1cc(F)cc(F)c1)c1cnc2cc(F)ccc2c1-c1cccc(Cl)c1` yielded a CLint of 0.22 mL/min/g.

For the compound `COc1cccc(-c2c(S(=O)(=O)c3cc(F)cc(F)c3)cnc3cc(F)ccc23)c1`, the CLint turned out to be 1.81 mL/min/g.

`O=S(=O)(c1ccc(F)c(Cl)c1)c1cnc2cc(F)ccc2c1-c1cccc(F)c1`: the CLint came to 0.25 mL/min/g.

On to `O=S(=O)(c1ccc(F)c(F)c1)c1cnc2cc(F)ccc2c1-c1cccc(Cl)c1`, for which the CLint came to 0.38 mL/min/g.

In turn, `COc1ccc(-c2c(S(=O)(=O)c3ccc(OC)cc3)cnc3cc(F)ccc23)cc1` displayed a CLint of 1.18 mL/min/g.

In turn, `O=S(=O)(c1ccc(F)c(Cl)c1)c1cnc2cc(F)ccc2c1-c1cccc(Cl)c1` showed a CLint of 0.66 mL/min/g.

On to `O=S(=O)(c1ccc(F)c(Cl)c1)c1cnc2c(F)cccc2c1-c1ccc(Cl)cc1`, for which the CLint was found to be 0.01 mL/min/g.

As for `COc1ccc(-c2c(S(=O)(=O)c3cc(Cl)cc(Cl)c3)cnc3cc(F)ccc23)cc1`, the CLint was 1 mL/min/g.

For `COc1cccc(-c2c(S(=O)(=O)c3ccc(C)c(F)c3)cnc3c(F)cccc23)c1`, the CLint worked out at 4.02 mL/min/g.

`COc1ccc(-c2c(S(=O)(=O)c3cc(F)cc(F)c3)cnc3cc(F)ccc23)cc1` had a CLint of 1.51 mL/min/g.

`COc1cccc(S(=O)(=O)c2cnc3cc(F)ccc3c2-c2cccc(Cl)c2)c1` yielded a CLint of 2.97 mL/min/g.

Regarding `Cc1ccc(S(=O)(=O)c2cnc3cc(F)ccc3c2-c2cccc(F)c2)cc1F`, the CLint was 0.41 mL/min/g.

`COc1ccc(-c2c(S(=O)(=O)c3ccc(F)cc3)cnc3cc(F)ccc23)cc1`: the CLint was 1.77 mL/min/g.

The compound `O=S(=O)(c1cc(F)cc(F)c1)c1cnc2cc(F)ccc2c1-c1ccc(Cl)cc1` gave a CLint of 0.03 mL/min/g.

For the compound `COc1ccc(-c2c(S(=O)(=O)c3ccc(F)c(F)c3)cnc3c(F)cccc23)cc1`, the CLint was 2.12 mL/min/g.

For `O=S(=O)(c1cc(Cl)cc(Cl)c1)c1cnc2c(F)cccc2c1-c1cccc(F)c1`, the CLint came to 1.08 mL/min/g.

`O=S(=O)(c1cc(F)cc(F)c1)c1cnc2c(F)cccc2c1-c1cccc(F)c1` yielded a CLint of 1.18 mL/min/g.

`COc1ccc(-c2c(S(=O)(=O)c3cccc(C#N)c3)cnc3cc(F)ccc23)cc1` had a CLint of 0.92 mL/min/g.

Consider `O=S(=O)(c1ccc(F)c(Cl)c1)c1cnc2c(F)cccc2c1-c1ccccc1F`, for which the CLint was 1.39 mL/min/g.

Consider `N#Cc1cccc(S(=O)(=O)c2cnc3c(F)cccc3c2-c2cccc(Cl)c2)c1`, for which the CLint was 1.11 mL/min/g.

Consider `Cc1ccc(S(=O)(=O)c2cnc3cc(F)ccc3c2-c2cccc(F)c2)cc1C`, for which the CLint amounted to 3.71 mL/min/g.

Compound `COc1ccc(-c2c(S(=O)(=O)c3ccc(C)c(F)c3)cnc3c(F)cccc23)cc1` came in with a CLint of 3.27 mL/min/g.

For the compound `COc1cccc(-c2c(S(=O)(=O)c3cc(Cl)cc(Cl)c3)cnc3c(F)cccc23)c1`, the CLint was 2.31 mL/min/g.

Consider `COc1ccc(S(=O)(=O)c2cnc3cc(F)ccc3c2-c2ccc(F)cc2)cc1`, for which the CLint came out at 1.71 mL/min/g.

As to `COc1ccc(-c2c(S(=O)(=O)c3cc(F)cc(F)c3)cnc3c(F)cccc23)cc1`, the CLint came to 2.59 mL/min/g.

Take `O=S(=O)(c1cc(Cl)cc(Cl)c1)c1cnc2cc(F)ccc2c1-c1cccc(Cl)c1`: the CLint stood at 0.93 mL/min/g.

Consider `COc1cccc(S(=O)(=O)c2cnc3cc(F)ccc3c2-c2cccc(F)c2)c1`, for which the CLint was determined as 3.36 mL/min/g.

As to `O=S(=O)(c1cccc(F)c1)c1cnc2c(F)cccc2c1-c1cccc(Cl)c1`, the CLint is 0.56 mL/min/g.

Compound `COc1cccc(-c2c(S(=O)(=O)c3ccc(C)c(C)c3)cnc3cc(F)ccc23)c1` registered a CLint of 8.78 mL/min/g.

As for `O=S(=O)(c1ccc(F)c(F)c1)c1cnc2c(F)cccc2c1-c1cccc(Cl)c1`, the CLint was 1.13 mL/min/g.

As to `N#Cc1cccc(S(=O)(=O)c2cnc3c(F)cccc3c2-c2ccccc2F)c1`, the CLint was found to be 0.66 mL/min/g.

Compound `COc1cccc(-c2c(S(=O)(=O)c3cc(F)cc(F)c3)cnc3c(F)cccc23)c1` had a CLint of 2.76 mL/min/g.

On to `Cc1ccc(S(=O)(=O)c2cnc3c(F)cccc3c2-c2cccc(Cl)c2)cc1F`, for which the CLint came to 3.18 mL/min/g.

As for `COc1ccc(S(=O)(=O)c2cnc3cc(F)ccc3c2-c2cccc(F)c2)cc1`, the CLint worked out at 2.94 mL/min/g.

`O=S(=O)(c1ccc(F)c(Cl)c1)c1cnc2c(F)cccc2c1-c1cccc(F)c1` had a CLint of 1.23 mL/min/g.

In the case of `O=S(=O)(c1cccc(F)c1)c1cnc2cc(F)ccc2c1-c1ccc(Cl)cc1`, the CLint amounted to 0.98 mL/min/g.

Take `O=S(=O)(c1cc(F)cc(F)c1)c1cnc2c(F)cccc2c1-c1ccc(Cl)cc1`: the CLint turned out to be 0.73 mL/min/g.

For the compound `COc1ccc(-c2c(S(=O)(=O)c3ccc(F)cc3)cnc3c(F)cccc23)cc1`, the CLint was 2.41 mL/min/g.

Take `O=S(=O)(c1cccc(F)c1)c1cnc2cc(F)ccc2c1-c1cccc(F)c1`: the CLint worked out at 0.24 mL/min/g.

The compound `O=S(=O)(c1ccc(F)cc1)c1cnc2cc(F)ccc2c1-c1ccc(F)cc1` returned a CLint of 1.34 mL/min/g.

`COc1cccc(-c2c(S(=O)(=O)c3ccc(OC)c(Cl)c3)cnc3cc(F)ccc23)c1` registered a CLint of 1.71 mL/min/g.

`O=S(=O)(c1cc(F)cc(F)c1)c1cnc2c(F)cccc2c1-c1ccccc1F` returned a CLint of 0.09 mL/min/g.

The compound `Cc1ccc(S(=O)(=O)c2cnc3cc(F)ccc3c2-c2ccc(F)cc2)cc1F` registered a CLint of 2.33 mL/min/g.

`COc1cccc(-c2c(S(=O)(=O)c3ccc(F)c(F)c3)cnc3cc(F)ccc23)c1` gave a CLint of 1.77 mL/min/g.

In turn, `Cc1ccc(S(=O)(=O)c2cnc3cc(F)ccc3c2-c2cccc(Cl)c2)cc1F` yielded a CLint of 2.13 mL/min/g.

As to `COc1ccc(-c2c(S(=O)(=O)c3ccc(C)c(C)c3)cnc3cc(F)ccc23)cc1`, the CLint is 4.13 mL/min/g.

In the case of `COc1ccc(S(=O)(=O)c2cnc3cc(F)ccc3c2-c2ccc(Cl)cc2)cc1`, the CLint worked out at 1.28 mL/min/g.

Compound `N#Cc1cccc(S(=O)(=O)c2cnc3c(F)cccc3c2-c2cccc(F)c2)c1` showed a CLint of 0.34 mL/min/g.

With `O=S(=O)(c1ccc(F)c(Cl)c1)c1cnc2cc(F)ccc2c1-c1ccccc1F`, the CLint was 1.07 mL/min/g.

In turn, `N#Cc1cccc(S(=O)(=O)c2cnc3cc(F)ccc3c2-c2cccc(F)c2)c1` registered a CLint of 0.78 mL/min/g.

Regarding `O=S(=O)(c1ccc(F)cc1)c1cnc2c(F)cccc2c1-c1cccc(Cl)c1`, the CLint turned out to be 1.21 mL/min/g.

For the compound `O=S(=O)(c1cccc(F)c1)c1cnc2c(F)cccc2c1-c1ccc(Cl)cc1`, the CLint worked out at 0.62 mL/min/g.

`O=S(=O)(c1cccc(F)c1)c1cnc2cc(F)ccc2c1-c1ccc(F)cc1` had a CLint of 0.11 mL/min/g.

Regarding `Cc1ccc(S(=O)(=O)c2cnc3cc(F)ccc3c2-c2ccc(Cl)cc2)cc1C`, the CLint amounted to 7.88 mL/min/g.

In turn, `O=S(=O)(c1ccc(F)c(F)c1)c1cnc2cc(F)ccc2c1-c1ccccc1F` returned a CLint of 0.79 mL/min/g.

Regarding `O=S(=O)(c1ccc(F)cc1)c1cnc2c(F)cccc2c1-c1cccc(F)c1`, the CLint worked out at 1.56 mL/min/g.

For the compound `Cc1ccc(S(=O)(=O)c2cnc3c(F)cccc3c2-c2ccc(Cl)cc2)cc1F`, the CLint was 2.2 mL/min/g.

Consider `O=S(=O)(c1ccc(F)c(Cl)c1)c1cnc2c(F)cccc2c1-c1ccc(F)cc1`, for which the CLint was 0.19 mL/min/g.

Turning to `O=S(=O)(c1cccc(F)c1)c1cnc2c(F)cccc2c1-c1ccccc1F`, the CLint amounted to 0.21 mL/min/g.

In the case of `O=S(=O)(c1ccc(F)c(Cl)c1)c1cnc2c(F)cccc2c1-c1cccc(Cl)c1`, the CLint was 0.18 mL/min/g.

As to `COc1cccc(-c2c(S(=O)(=O)c3cccc(F)c3)cnc3c(F)cccc23)c1`, the CLint is 2.6 mL/min/g.

`COc1ccc(-c2c(S(=O)(=O)c3ccc(OC)cc3)cnc3c(F)cccc23)cc1`: the CLint was 2.12 mL/min/g.

With `O=S(=O)(c1ccc(F)c(F)c1)c1cnc2c(F)cccc2c1-c1ccc(F)cc1`, the CLint was 0.78 mL/min/g.

Compound `Cc1ccc(S(=O)(=O)c2cnc3cc(F)ccc3c2-c2cccc(Cl)c2)cc1C` had a CLint of 4.01 mL/min/g.

Regarding `COc1ccc(S(=O)(=O)c2cnc3c(F)cccc3c2-c2cccc(OC)c2)cc1`, the CLint is 2.87 mL/min/g.

With `O=S(=O)(c1cc(Cl)cc(Cl)c1)c1cnc2c(F)cccc2c1-c1cccc(Cl)c1`, the CLint was 1.2 mL/min/g.

For `O=S(=O)(c1cc(Cl)cc(Cl)c1)c1cnc2c(F)cccc2c1-c1ccccc1F`, the CLint amounted to 0.44 mL/min/g.

Compound `O=S(=O)(c1ccc(F)c(F)c1)c1cnc2cc(F)ccc2c1-c1cccc(F)c1` came in with a CLint of 0.6 mL/min/g.

As for `O=S(=O)(c1cc(F)cc(F)c1)c1cnc2c(F)cccc2c1-c1cccc(Cl)c1`, the CLint was determined as 0.64 mL/min/g.

With `O=S(=O)(c1ccc(F)c(F)c1)c1cnc2c(F)cccc2c1-c1ccccc1F`, the CLint was found to be 1.39 mL/min/g.

`COc1ccc(-c2c(S(=O)(=O)c3ccc(F)c(Cl)c3)cnc3cc(F)ccc23)cc1` returned a CLint of 1.08 mL/min/g.

In turn, `Cc1ccc(S(=O)(=O)c2cnc3c(F)cccc3c2-c2ccc(F)cc2)cc1F` showed a CLint of 2.75 mL/min/g.

Regarding `O=S(=O)(c1cc(Cl)cc(Cl)c1)c1cnc2cc(F)ccc2c1-c1ccccc1F`, the CLint was 0.93 mL/min/g.

In turn, `COc1ccc(S(=O)(=O)c2cnc3c(F)cccc3c2-c2cccc(F)c2)cc1` returned a CLint of 3.03 mL/min/g.

Turning to `Cc1ccc(S(=O)(=O)c2cnc3cc(F)ccc3c2-c2ccc(F)cc2)cc1C`, the CLint came out at 9.25 mL/min/g.

The compound `COc1ccc(S(=O)(=O)c2cnc3c(F)cccc3c2-c2ccc(Cl)cc2)cc1` yielded a CLint of 1.05 mL/min/g.

(Values after ChEMBL document CHEMBL4007421, “Discovery and Preclinical Characterization of 3-((4-(4-Chlorophenyl)-7-fluoroquinoline-3-yl)sulfonyl)benzonitrile, a Novel Non-acetylenic Metabotropic Glutamate Receptor 5 (mGluR5) Negative Allosteric Modulator for Psychiatric Indications” (J Med Chem, 2017).)
